Results taken from US6437128B1, “Cribrostatins 3-5” (Arizona Board of Regents, priority 2001, dated 2002).
≈ marks a conversion by molar mass, not a printed value. Where “and” joins values, the source holds several entries; their conditions need not be identical. Equal entries are not always repeated.

Assays:
K-562 = assay: NCI 60-cell screen; assay type: cell-based, human; settings: Homo sapiens, K562, averaged, quadruplicate, upper limit 10^−5 M, read-out: negative log10 GI50 (converted)
NCI-H226 = assay: NCI 60-cell screen; assay type: cell-based, human; settings: Homo sapiens, averaged, quadruplicate, upper limit 10^−5 M, read-out: negative log10 GI50 (converted)
NCI-H460 = assay: NCI 60-cell screen; assay type: cell-based, human; settings: Homo sapiens, averaged, quadruplicate, upper limit 10^−5 M, read-out: negative log10 GI50 (converted)
A549/ATCC = assay: NCI 60-cell screen; assay type: cell-based, human; settings: Homo sapiens, averaged, quadruplicate, upper limit 10^−5 M, read-out: negative log10 GI50 (converted)
[1] = tested on: Stenotrophomonas maltophilia (ATCC 13637); assay: Antimicrobial disk diffusion; assay type: cell-based
RXF-393 = assay: NCI 60-cell screen; assay type: cell-based, human; settings: Homo sapiens, averaged, quadruplicate, upper limit 10^−5 M, read-out: negative log10 GI50 (converted)
[2] = tested on: Micrococcus luteus (Presque Isle 456); assay: Antimicrobial disk diffusion; assay type: cell-based; settings: listed as 5
MDA-N = assay: NCI 60-cell screen; assay type: cell-based, human; settings: Homo sapiens, averaged, quadruplicate, upper limit 10^−5 M, read-out: negative log10 GI50 (converted)
MCF7 = assay: NCI 60-cell screen; assay type: cell-based, human; settings: Homo sapiens, averaged, quadruplicate, upper limit 10^−5 M, read-out: negative log10 GI50 (converted)
SF-539 = assay: NCI 60-cell screen; assay type: cell-based, human; settings: Homo sapiens, averaged, quadruplicate, upper limit 10^−5 M, read-out: negative log10 GI50 (converted)
[3] = tested on: Candida albicans (ATCC 90028); assay: Antimicrobial disk diffusion; assay type: cell-based
ACHN = assay: NCI 60-cell screen; assay type: cell-based, human; settings: Homo sapiens, averaged, quadruplicate, upper limit 10^−5 M, read-out: negative log10 GI50 (converted)
RPMI-8226 = assay: NCI 60-cell screen; assay type: cell-based, human; settings: Homo sapiens, averaged, quadruplicate, upper limit 10^−5 M, read-out: negative log10 GI50 (converted)
[4] = tested on: P388 lymphocytic leukemia; assay: in vitro murine P388 lymphocytic leukemia (PS) cell growth inhibition; assay type: cell-based
Description: The fractions obtained from the 1988-89 recollection of Cribrochalina so. (See: Pettit, G. R.; Collins, J. C.; Herald, D. L.; Doubek, D. L.; Boyd, M. R.; Schmidt, J. M.; Hooper, J. N. A.; Tackett, L. P. Can. J. Cheim. 1992, 70, 1170-1175) beginning with the 195 g dichloromethane partition fraction were re-examined guided by bioassay results using the murine P388 lymphocytic leukemia.
Individual cell line response values are provided in the Experimental.

KM 12 = assay: NCI 60-cell screen; assay type: cell-based, human; settings: Homo sapiens, KM12, averaged, quadruplicate, upper limit 10^−5 M, read-out: negative log10 GI50 (converted)
HL-60 (TB) = assay: NCI 60-cell screen; assay type: cell-based, human; settings: Homo sapiens, averaged, quadruplicate, upper limit 10^−5 M, read-out: negative log10 GI50 (converted)
[5] = tested on: Enterococcus faecalis (ATCC 29212); assay: Antimicrobial disk diffusion; assay type: cell-based
OVCAR-8 = assay: NCI 60-cell screen; assay type: cell-based, human; settings: Homo sapiens, averaged, quadruplicate, upper limit 10^−5 M, read-out: negative log10 GI50 (converted)
[6] = tested on: Enterobacter cloacae (ATCC 13047); assay: Antimicrobial disk diffusion; assay type: cell-based
SF-268 = assay: NCI 60-cell screen; assay type: cell-based, human; settings: Homo sapiens, averaged, quadruplicate, upper limit 10^−5 M, read-out: negative log10 GI50 (converted)
LOX IMVI = assay: NCI 60-cell screen; assay type: cell-based, human; settings: Homo sapiens, averaged, quadruplicate, upper limit 10^−5 M, read-out: negative log10 GI50 (converted)
HOP-92 = assay: NCI 60-cell screen; assay type: cell-based, human; settings: Homo sapiens, averaged, quadruplicate, upper limit 10^−5 M, read-out: negative log10 GI50 (converted)

SMILES: C/C=C(/C)C(=O)OC[C@H]1C2=C(C=C3[C@H]4c5c(O)c(OC)c(C)c(O)c5C(=O)[C@@H](C(=O)N31)N4C)C(=O)C(C)=C(OC)C2=O [Cribrostatin 4, cribrostatin 4]
- GI50 (K-562): 4.37 µM
- GI50 (NCI-H226): 7.94 µM
- GI50 (NCI-H460): 7.59 µM
- GI50 (A549/ATCC): 8.71 µM
- Minimum inhibitory concentration [1]: * (No inhibition at 100 μg/disk)
- GI50 (RXF-393): 5.25 µM
- Minimum inhibitory concentration [2]: * (No inhibition at 100 μg/disk)
- GI50 (MDA-N): 2.19 µM
- GI50 (MCF7): 8.13 µM
- GI50 (SF-539): 5.75 µM
- Minimum inhibitory concentration [3]: * (No inhibition at 100 μg/disk)
- GI50 (ACHN): 7.94 µM
- GI50 (RPMI-8226): 6.17 µM
- GI50 ([4]; Mouse Leukemia P388, read-out: GI50): 24.6 µg/mL (≈ 42.5 µM)
- PS ED50 (P388 ED50) ([4]; in vitro P388 lymphocytic leukemia, listed as cribrostatin 4): 25 µg/mL and 24 µg/mL
- GI50 (KM 12): 9.12 µM
- GI50 (HL-60 (TB)): 5.37 µM
- Minimum inhibitory concentration [5]: * (No inhibition at 100 μg/disk)
- GI50 (OVCAR-8): 4.27 µM
- Minimum inhibitory concentration [6]: * (No inhibition at 100 μg/disk)
- GI50 (SF-268): 9.55 µM
- GI50 (LOX IMVI): 3.31 µM
- GI50 (HOP-92): 8.13 µM
